Patent publication US7166440B2, “2,4,5-trichlorophenoxyalkyl carboxylic acid and a method for determining dioxins using the same” (priority 2003, dated 2007)

Columns and labels:
[1] = test system: monoclonal antibody of clone C-1 (anti-dioxin antibody); experiment: Competitive EIA: inhibition of binding of clone C-1 monoclonal antibody to solid-phase antigen by free dioxin; parameters: species or system mouse
Procedure: (§1) Using various monoclonal antibodies, the specificity of the monoclonal antibodies to dioxin isomers was examined. The monoclonal antibodies were prepared in the following manner. An antibody-producing cell was injected into the abdominal cavity of a pristane-pretreated mouse. Th ascites fluid in the abdominal cavity caused by the growth of the cells was collected, and then a monoclonal antibody was purified by affinity chromatography using a protein G-Sepharose (manufactured by BIO-RAD Co.) as a carrier. Using three antibody-producing clones C-1, C-2 and C-3, respective monoclonal antibodies were prepared. The clones C-1, C-2 and C-3 produce monoclonal antibodies with respect to dibenzodioxin having chlorine atom at the 2-, 3-, 7-, and 8-positions.
(§2) To evaluate the specificity of the monoclonal antibody was performed according to the following principles. A solid-phase antigen (competitor) and a free dioxin (ligand) are allowed to compete with each other with respect to a free monoclonal antibody (anti-dioxin antibody). If the reactivity of the monoclonal antibody and the dioxin is higher than that of the monoclonal antibody and the solid-phase antigen, the binding of the monoclonal antibody to the solid-phase antigen is reduced. This reduction of the binding of the monoclonal antibody to the solid-phase antigen can be measured by color development method. This phenomenon can be applied to evaluate the specificity.
(§3) First, the immune antigen or the compound (IIa) conjugated with BSA that was produced in Example 2 was diluted with PBS to 1 μg/ml, and divided into each well of a 96-well assay plate (manufactured by Costar, Cat. No. 3590) in an amount of 50 μl. Then, the plate was sealed and allowed to stand at room temperature for one hour. Then, each well was washed with PBS containing 0.005% of Tween 20 three times. Next, 300 μl of Block Ace (manufactured by Snow Brand Milk Products Co., Ltd.) diluted with distilled water to a concentration of 25% was supplied to each well, and the plate was sealed and allowed to stand at 37° C. for two hours. Each well was washed with PBS containing 0.005% of Tween 20 three times. Then, a 25 μl of the dioxin compound solution of a final concentration of 5×10^−7 M was added to each well. The dioxin compound solution was prepared by diluting the dioxin with a dilution solvent comprising 20% DMSO and 0.01% of Triton X100. As controls, a dilution solvent in an amount of 25 μl was added to each well. Immediately after the addition of the dioxin compound solution or the dilution solvent, 25 μl of an antibody solution diluted with PBS containing 1 mg/ml of BSA was added to each well. The assay plate was stand at room temperature for one hour with slightly shaking.
(§4) After washing with PBS containing 0.005% of Tween 20 three times, 50 μl of the diluted HRP-labeled goat anti-mouse IgG (H+L) antibody (produced by affinity purification) was added to each well. The diluted HRP-labeled antibody was prepared by diluting the purchased HRP-labeled antibody to 2000 times as much with 10% Block Ace. The plate was allowed to stand at room temperature for one hour, followed by washing with PBS containing 0.005% of Tween 20 three times. Then, 50 μl of a HRP substrate, TMB (manufactured by KPL Co., Ltd.), was added to each well and allowed to stand at room temperature for 5 to 10 min. Then, 5 μl of a 1 M phosphate solution was added to each well, and the absorbance at a wavelength of 455 nm (655 nm for the reference) was measured with a spectrophotometer for a microtiter. The reactivity was evaluated by obtaining the absorbance (B0) at the time when the dioxin compound is not added, which is a control (diluent) and the absorbance (B) at the time when the dioxin compound is added. The inhibition rate was measured based on the following equation. Inhibition rate={(B0−B)/B0}×100 (%)
(§5) Evaluation was such that the larger this inhibition rate is, the higher the specificity of the anti-dioxin antibody to the dioxin compound.

[2] = test system: monoclonal antibody of clone C-3 (anti-dioxin antibody); experiment: Competitive EIA: inhibition of binding of clone C-3 monoclonal antibody to solid-phase antigen by free dioxin; parameters: species or system mouse
Procedure: as §1, §2, §3, §4, §5

[3] = toxicity equivalent factor of the dioxins used; cited from earlier work
[4] = test system: anti-dioxin antibody (monoclonal antibody) to 1,2,3,7,8-PeCDF; format: binding, mouse; settings: Table 2, dioxins having TEF; solid-phase antigen (IIa); antibody to 1,2,3,7,8-PeCDF
Procedure: as §3, §4
An anti-dioxin antibody (monoclonal antibody) to 1,2,3,7,8-PeCDF is used as an antibody. A haptenized product of a solid-phase antigen 6-(2,4,5-trichlorophenoxy) hexanoic acid amide derivative (IIa) and the chlorine-containing organic compounds in Tables 2 and 3 were allowed to compete with each other to this anti-dioxin antibody so that a competitive reaction was effected in the same manner as in Example 3. Then, the cross-reactivity was examined.

[5] = test system: monoclonal antibody of clone C-2 (anti-dioxin antibody); experiment: Competitive EIA: inhibition of binding of clone C-2 monoclonal antibody to solid-phase antigen by free dioxin; parameters: species or system mouse
Procedure: as §1, §2, §3, §4, §5

[6] = solid-phase antigen * (haptenized product of 6-(2,4,5-trichlorophenoxy) hexanoic acid amide derivative IIa), dioxin compound 5×10^−7 M
[7] = solid-phase antigen immunogen 1, dioxin compound final concentration 5×10^−7 M
[8] = solid-phase antigen immunogen 3, dioxin compound final concentration 5×10^−7 M
[9] = solid-phase antigen immunogen 2, dioxin compound final concentration 5×10^−7 M

| SMILES | Inhibition rate [1, 6] | Inhibition rate [1, 7] | Inhibition rate [2, 6] | Inhibition rate [2, 8] | TEF value [3] | cross reaction [4] | Inhibition rate [5, 6] | Inhibition rate [5, 9] |
| --- | --- | --- | --- | --- | --- | --- | --- | --- |
| Clc1cc2c(cc1Cl)Oc1cc(Cl)c(Cl)cc1O2 [2,3,7,8-TeCDD, 2,3,7,8-tetrachlorozibenzo-p-dioxin] | 7.4% | 0.4% | −3.4% | −0.2% | 1 | 1.1% | 7.7% | −3.0% |
| Clc1cc2oc3cc(Cl)c(Cl)cc3c2cc1Cl [2,3,7,8-TeCDF] | 8.4% | 1.6% | 4.3% | −1.6% | 0.1 | 1.5% | 37.6% | 15.3% |
| Clc1c(Cl)c(Cl)c2c(c1Cl)Oc1c(Cl)c(Cl)c(Cl)c(Cl)c1O2 [OCDD] | 1.6% | −2.5% | −3.7% | −0.4% | 0.0001 | <0.1% | 9.4% | 0.1% |
| Clc1c(Cl)c(Cl)c2c(oc3c(Cl)c(Cl)c(Cl)c(Cl)c32)c1Cl [OCDF] | 27.0% | 1.1% | 4.9% | 1.3% | 0.0001 | 8.0% | 7.2% | 18.1% |
